Data published in the NIST ThermoML archive (doi:10.1016/j.jct.2005.08.005).

Key:
[1] = refractive index (other wavelength) (dimensionless); conditions: 101.3 kPa, Liquid, Wavelength=632.8 nm, Method described in references 3 and 4 of the article
[2] = refractive index (other wavelength) (dimensionless); xn = mol fraction of the nth substance listed; conditions: 101.3 kPa, Liquid, Wavelength=632.8 nm, Method described in references 3 and 4 of the article, x2 = 0

N#Cc1ccccc1 [benzonitrile]
[1]
Conditions | refractive index
294.62 K | 1.5246
296.97 K | 1.5235
299.08 K | 1.5224
301.39 K | 1.5213
303.42 K | 1.5203
305.92 K | 1.5191

CCCCCCCCCCCCCCCC [hexadecane]
[1]
Conditions | refractive index
294.85 K | 1.4324
295.86 K | 1.432
296.96 K | 1.4315
297.9 K | 1.4312
299.71 K | 1.4304
301.21 K | 1.4297
302.84 K | 1.4291
304.26 K | 1.4285

CCCCCCCCCCCCCCCC [hexadecane] + N#Cc1ccccc1
[2]
Conditions | refractive index
294.85 K | 1.4324
295.86 K | 1.432
296.96 K | 1.4315
297.9 K | 1.4312
299.71 K | 1.4304
301.21 K | 1.4297
302.84 K | 1.4291
304.26 K | 1.4285
